For data set [1] the following is noted: CD1-nude, mouse.
In data set [2] the test system is medulloblastoma/primitive neuroectodermal tumor (cell line JRMB-6). The following applies: single agent, 130 mg/kg IP daily for five consecutive days; cited from earlier work.
Data set [3] is described as follows: in vivo. The following applies: female, CD1-nude, mouse, ip, 130 mg/kg.
The next data set can be described thus: in vitro. The following applies: CD1, mouse, plasma.
The conditions of data set [4]: humans; cited from earlier work.
Data set [5] can be described thus: in vivo. The following applies: CD1-nude, mouse, Kp,uu (unbound ECF to plasma partition coefficient), mean (SD).
For data set [6] the following is noted: female, CD1-nude, mouse, in vivo.

Here are results for 1 molecule from paper PMC7413074 (Journal of pharmacy & pharmaceutical sciences : a …, 2019).

What is called AUC is concentration integrated over time. Read a high AUC as more exposure. In general, fraction unbound refers to free concentration divided by total concentration.

Where two headings read alike, the source gives them in different places.

As to `O=P1(N(CCCl)CCCl)NCCCO1` (stereo not drawn) [cyclophosphamide], in data set [1] (in vivo), the “AUCECF,0-5h (unbound brain ECF exposure), mean (SD)” value was 6.3 (1.3) μM·h; the “AUCECF,0-5h (unbound tumor ECF exposure), mean (SD)” value is listed as 4.0 (1.4) μM·h; the “AUCECF,0-5h (unbound tumor or brain ECF exposure), mean (SD)” value was 5.2 (1.8) μM·h; the “Influx clearance CLin, estimate (RSE%)” value is 4.3·10^−4 (16) L/h/kg. For the same molecule, in data set [1] (in vivo), the “Inter-individual variability, influx clearance η-CLin, estimate (RSE%)” value was 0.31 (51) and the “Proportional residual variability εprop, estimate (RSE%)” value is on record as 0.45 (12). Besides, in data set [1] (not told), the “Efflux clearance CLef, estimate (RSE%)” value is reported as 2.4·10^−3 (7.0) L/h/kg and the “Inter-individual variability, efflux clearance η-CLef, estimate (RSE%)” value is recorded as 0.23 (22). Also, in data set [2], the Response rate is 85% and the “Survival versus saline controls” value was “statistically improved survival”. The molecule also came in with an area under the curve (AUC) in the data set “in vivo [3]” of 113 µM·h. Also, the fraction unbound in the data set “in vitro” was 0.26. In data set [4], the “FU (fraction unbound)” value is 7-17%. Further, the Kp uu in the data set “in vivo [5]” is 0.22. In addition, in data set [6], the “Central clearance CL, estimate (RSE%)” value is given as 4.4 (3.7) L/h/kg; the “Central volume V, estimate (RSE%)” value is recorded as 0.65 (5.0) L/kg; the “Inter-individual variability, central clearance η-CL, estimate (RSE%)” value is listed as 0.11 (17); the “Peripheral clearance Q, estimate (RSE%)” value is given as 0.18 (4.3) L/h/kg. For the same molecule, in data set [6], the “Peripheral volume Vp, estimate (RSE%)” value is reported as 0.062 (2.6) L/kg and the “Proportional residual variability εprop, estimate (RSE%)” value is listed as 0.24 (11). In addition, the “Mean observed maximum concentrations” value in data set [6] (ip, 130 mg/kg) worked out at 352.9 µM.
